The text below walks through data of patent US20220274961A1, “SUBSTITUTED FUSED BI- OR TRI- HETEROCYCLIC COMPOUNDS AS EHMT2 INHIBITORS” (priority 2016, published 2022).

In one assay the target is T1, EHMT1 (Homo sapiens, UniProt Q9H9B1).
T1 sequence (Q9H9B1 1-1298): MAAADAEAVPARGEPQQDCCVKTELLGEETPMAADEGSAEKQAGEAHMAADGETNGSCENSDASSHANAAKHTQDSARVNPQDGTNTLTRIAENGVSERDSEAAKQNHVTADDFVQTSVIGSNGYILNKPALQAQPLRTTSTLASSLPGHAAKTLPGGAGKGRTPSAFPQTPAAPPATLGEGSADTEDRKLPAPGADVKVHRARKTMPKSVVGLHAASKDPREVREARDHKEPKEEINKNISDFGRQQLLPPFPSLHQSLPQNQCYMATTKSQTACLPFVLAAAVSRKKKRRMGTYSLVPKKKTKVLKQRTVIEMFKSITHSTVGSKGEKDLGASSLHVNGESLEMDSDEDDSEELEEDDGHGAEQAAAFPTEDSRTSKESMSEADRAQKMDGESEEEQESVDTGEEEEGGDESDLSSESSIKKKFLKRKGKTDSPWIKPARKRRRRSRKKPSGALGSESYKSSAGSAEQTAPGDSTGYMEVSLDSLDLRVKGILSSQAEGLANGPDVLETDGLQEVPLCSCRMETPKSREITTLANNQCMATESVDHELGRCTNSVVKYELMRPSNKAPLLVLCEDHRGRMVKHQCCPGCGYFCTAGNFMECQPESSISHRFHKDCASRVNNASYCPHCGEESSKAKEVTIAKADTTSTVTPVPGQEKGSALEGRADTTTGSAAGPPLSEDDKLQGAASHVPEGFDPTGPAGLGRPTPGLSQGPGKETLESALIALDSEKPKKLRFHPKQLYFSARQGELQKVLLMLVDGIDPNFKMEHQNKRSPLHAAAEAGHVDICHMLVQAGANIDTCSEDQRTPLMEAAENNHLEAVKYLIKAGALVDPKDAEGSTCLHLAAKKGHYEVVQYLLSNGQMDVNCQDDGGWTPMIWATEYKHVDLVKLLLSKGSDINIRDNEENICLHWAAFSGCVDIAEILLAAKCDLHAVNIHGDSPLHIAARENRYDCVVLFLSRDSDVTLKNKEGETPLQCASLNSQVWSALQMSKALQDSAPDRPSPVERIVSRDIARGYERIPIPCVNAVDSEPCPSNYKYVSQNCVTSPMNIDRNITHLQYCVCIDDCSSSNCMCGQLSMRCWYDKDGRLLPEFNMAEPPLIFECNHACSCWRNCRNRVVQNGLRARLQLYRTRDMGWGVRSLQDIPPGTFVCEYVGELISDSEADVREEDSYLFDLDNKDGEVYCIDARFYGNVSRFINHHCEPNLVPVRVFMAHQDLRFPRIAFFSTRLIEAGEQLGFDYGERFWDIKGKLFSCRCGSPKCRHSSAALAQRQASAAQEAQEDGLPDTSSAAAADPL
The assay is described as follows: EHMT1 PEP. It is filed as biochemical.

In the next assay the target is T2, human EHMT2 913-1193 (Homo sapiens, UniProt Q96KQ7).
T2 construct: recombinant purified human EHMT2 913-1193, Viva; purchased Viva
T2 sequence (Q96KQ7 913-1193): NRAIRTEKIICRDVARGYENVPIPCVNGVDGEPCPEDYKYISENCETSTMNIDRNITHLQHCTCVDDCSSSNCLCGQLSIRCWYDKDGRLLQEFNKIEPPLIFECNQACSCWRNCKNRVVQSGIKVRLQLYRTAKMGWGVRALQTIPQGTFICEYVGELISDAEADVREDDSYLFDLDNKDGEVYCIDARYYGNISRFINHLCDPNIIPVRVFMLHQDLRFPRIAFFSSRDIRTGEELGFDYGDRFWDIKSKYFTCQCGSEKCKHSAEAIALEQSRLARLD
The assay is described as follows: biochemical. The text has this: Biotinylated histone peptides were synthesized by Biopeptide and HPLC-purified to >95% purity. Streptavidin Flashplates and seals were purchased from PerkinElmer and 384 Well V-bottom Polypropylene Plates were from Greiner. ^3H-labeled S-adenosylmethionine (^3H-SAM) was obtained from American Radiolabeled Chemicals with a specific activity of 80 Ci/mmol. Unlabeled SAM and S-adenosylhomocysteine (SAH) were obtained from American Radiolabeled Chemicals and Sigma-Aldrich respectively. […] 384-well Flashplates and 96-well filter binding plates were read on a TopCount microplate reader (PerkinElmer). Compound serial dilutions were performed on a Freedom EVO (Tecan) and spotted into assay plates using a Thermo Scientific Matrix PlateMate (Thermo Scientific). Reagent cocktails were added by Multidrop Combi (Thermo Scientific).
General Procedure for EHMT2 Enzyme Assay on Histone Peptide Substrate. 10-point curves of test compounds were made on a Freedom EVO (Tecan) using serial 3-fold dilutions in DMSO, beginning at 2.5 mM (final top concentration of compound was 50 μM and the DMSO was 2%). A 1 μL aliquot of the inhibitor dilution series was spotted in a polypropylene 384-well V-bottom plate (Greiner) using a Thermo Scientific Matrix PlateMate (Thermo Scientific). […] Reactions were incubated for 60 minutes at room temperature and quenched with 10 μL per well of 400 μM unlabeled SAM, then transferred to a 384-well streptavidin Flashplate (PerkinElmer) and washed in a Biotek ELx-405 well washer with 0.1% Tween after 60 minutes. 384-well Flashplates were read on a TopCount microplate reader (PerkinElmer).

[1] abbreviates: recombinant human EHMT2 913-1193, histone H3 1-15 peptide, 3H-SAM, balanced conditions, read-out: EHMT2 PEP (IC50 μM).

Read-outs that look alike come from different tables or passages of the source.

As for `CNc1nc2cc(OC[C@H](O)CN3CCCC3)c(OC)cc2n1C1CCCC1` [Compound 38], the IC50 at EHMT1 and on human EHMT2 913-1193 (setting [1]) was under 0.1 µM each time.

`CCN1CC[C@@H](COc2cc3nc(N)n(C4CCCC4)c3cc2OC)C1` [Compound 9, 1-cyclopentyl-5-[[(3R)-1-ethylpyrrolidin-3-yl]methoxy]-6-methoxy-1H-1,3-benzodiazol-2-amine]: the IC50 against EHMT1 and at human EHMT2 913-1193 (setting [1]) was under 0.1 µM each time.

On to `COc1cc2c(cc1OCCCN1CCCC1)nc(N)n2C1CCCC1` [Compound 3, 1-cyclopentyl-6-methoxy-5-(3-(pyrrolidin-1-yl)propoxy)-1H-benzo[d]imidazol-2-amine], for which the IC50 against EHMT1 and on human EHMT2 913-1193 (setting [1]) was under 0.1 µM throughout.

With `CNc1nc2cc(CNCCN3CCCC3)c(OC)cc2n1C` [Compound 37], the IC50 on EHMT1 and on human EHMT2 913-1193 (setting [1]) was under 0.1 µM each time.

`COCCNC1=Nc2cc(C#CCN3CCCCC3)c(OC)cc2C12CCC2` [Compound 99]: the IC50 on EHMT1 and on human EHMT2 913-1193 (setting [1]) was under 0.1 µM in each case.

As to `CCNC1=Nc2cc(CNCCN3CCC3)c(OC)cc2C12CCC2` [Compound 72], the 50% inhibitory concentration (IC50) on EHMT1 and on human EHMT2 913-1193 (setting [1]) was under 0.1 µM in each case.

Take `COc1cc2c(cc1OCCCN1CCCC1)nc(N)n2C(C)C` [Compound 19]: the IC50 against EHMT1 and at human EHMT2 913-1193 (setting [1]) was under 0.1 µM each time.

On to `CCNC1=Nc2cc(CNCCN3CCCC3)c(OC)cc2C12CCC2` [Compound 71], for which the IC50 against EHMT1 and on human EHMT2 913-1193 (setting [1]) was under 0.1 µM each time.

As for `CNc1nc2cc(OC[C@H](O)CN3CCC3)c(OC)cc2n1C` [Compound 25], the IC50 at EHMT1 was under 0.1 µM; on human EHMT2 913-1193 (setting [1]), 0.1 to 1 µM.

Regarding `CNc1nc2cc(CNCCN3CCCC3)c(OC)cc2n1C(C)C` [Compound 40], the IC50 against EHMT1 was under 0.1 µM; on human EHMT2 913-1193 (setting [1]), 0.1 to 1 µM.

Regarding `CNc1nc2cc(OC[C@H](O)CN3CCCC3)c(OC)cc2n1C` [Compound 26], the IC50 at EHMT1 was under 0.1 µM; at human EHMT2 913-1193 (setting [1]), 0.1 to 1 µM.

For `CCn1c(NC)nc2cc(OCCCN3CCCC3)c(OC)cc21` [Compound 42], the IC50 at EHMT1 and on human EHMT2 913-1193 (setting [1]) was under 0.1 µM each time.

As to `COc1cc2c(cc1OCCCN1CCCC1)nc(N)n2CC1CCOCC1` [Compound 18], the 50% inhibitory concentration (IC50) on EHMT1 and on human EHMT2 913-1193 (setting [1]) was 0.1 to 1 µM each time.

`COc1cc2c(cc1OCCCN1CCCC1)N=C(N)C21CCOCC1` [Compound 5, 5-methoxy-6-(3-(pyrrolidin-1-yl)propoxy)-2′,3′,5′,6′-tetrahydrospiro[indole-3,4′-pyran]-2-amine]: the concentration for half-maximal inhibition (IC50) at EHMT1 and on human EHMT2 913-1193 (setting [1]) was under 0.1 µM throughout.

Consider `CNc1nc2cc(OCCCN3CCCC3)c(OC)cc2n1C` [Compound 8, 6-methoxy-N,1-dimethyl-5-(3-(pyrrolidin-1-yl)propoxy)-1H-benzo[d]imidazol-2-amine], for which the IC50 against EHMT1 and on human EHMT2 913-1193 (setting [1]) was under 0.1 µM throughout.

In the case of `CNC1=Nc2cc(C#C[C@@H](C)N3CCCC3)c(OC)cc2C12CCC2` [Compound 86], the IC50 against EHMT1 and at human EHMT2 913-1193 (setting [1]) was 0.1 to 1 µM in each case.

`CNC1=Nc2cc(C#CC(C)N3CCCC3)c(OC)cc2C12CCC2` (stereo not drawn) [Compound 84]: the IC50 against EHMT1 and at human EHMT2 913-1193 (setting [1]) was under 0.1 µM in each case.

With `COc1cc2sc(N)nc2cc1OCCCN1CCCC1` [Compound 6, 6-methoxy-5-[3-(pyrrolidin-1-yl)propoxy]-1,3-benzothiazol-2-amine], the IC50 against EHMT1 and at human EHMT2 913-1193 (setting [1]) was 1 to 10 µM each time.

For `COc1cc2c(cc1OC[C@H](O)CN1CCCC1)nc(NC(C)C)n2C` [Compound 32], the IC50 against EHMT1 and at human EHMT2 913-1193 (setting [1]) was 0.1 to 1 µM throughout.

As to `CNc1nc2cc(OCCCN3CCCC3)c(OC)cc2n1C1CCOCC1` [Compound 13, 6-methoxy-N-methyl-5-(3-(pyrrolidin-1-yl)propoxy)-1-(tetrahydro-2H-pyran-4-yl)-1H-benzo[d]imidazol-2-amine], the IC50 on EHMT1 and at human EHMT2 913-1193 (setting [1]) was under 0.1 µM each time.

Turning to `CNC1=Nc2cc(C#CC(C)N3CCCCC3)c(OC)cc2C12CCC2` (stereo not drawn) [Compound 92], the IC50 at EHMT1 and on human EHMT2 913-1193 (setting [1]) was under 0.1 µM each time.

As for `COc1cc2c(cc1OCCCN1CCCC1)nc(N)n2C` [Compound 2, 6-methoxy-1-methyl-5-(3-(pyrrolidin-1-yl)propoxy)-1H-benzo[d]imidazol-2-amine], the IC50 on EHMT1 and on human EHMT2 913-1193 (setting [1]) was under 0.1 µM in each case.

With `CCN1CC(COc2cc3nc(N)n(C4CCCC4)c3cc2OC)C1` [Compound 10, 1-cyclopentyl-5-((1-ethylazetidin-3-yl)methoxy)-6-methoxy-1H-benzo[d]imidazol-2-amine], the IC50 was under 0.1 µM on EHMT1 and 0.1 to 1 µM at human EHMT2 913-1193 (setting [1]).

With `COc1cc2c(cc1OCCCN1CCCC1)nc(NC1CCOCC1)n2C` [Compound 29], the IC50 at EHMT1 and on human EHMT2 913-1193 (setting [1]) was 1 to 10 µM each time.

With `CNC1=Nc2cc(CNCCN3CCCC3)c(OC)cc2C12CCC2` [Compound 70], the IC50 at EHMT1 and at human EHMT2 913-1193 (setting [1]) was under 0.1 µM in each case.

For the compound `COc1cc2c(cc1OCCCN1CCCC1)nc(C)n2C` [Compound 21, 6-methoxy-1,2-dimethyl-5-(3-(pyrrolidin-1-yl)propoxy)-1H-benzo[d]imidazole], the IC50 against EHMT1 and at human EHMT2 913-1193 (setting [1]) was 1 to 10 µM throughout.

Regarding `COc1cc2c(cc1OC[C@H](O)CN1CCCC1)nc(NCC1CC1)n2C` [Compound 34], the IC50 on EHMT1 was under 0.1 µM; at human EHMT2 913-1193 (setting [1]) it was 0.1 to 1 µM.

In the case of `CNc1nc2cc(CNCCN3CCCC3)c(C)cc2n1C(C)C` [Compound 139], the half-maximal inhibitory concentration (IC50) was 0.1 to 1 µM at EHMT1 and 1 to 10 µM on human EHMT2 913-1193 (setting [1]).

For the compound `COc1cc2c(cc1OCCCN1CCCC1)nc(C1CCCC1)n2C` [Compound 22, 2-cyclopentyl-6-methoxy-1-methyl-5-(3-(pyrrolidin-1-yl)propoxy)-1H-benzo[d]imidazole], the IC50 at EHMT1 and at human EHMT2 913-1193 (setting [1]) was 1 to 10 µM in each case.

With `CNC1=Nc2cc(C#C[C@H](C)N3CCCC3)c(OC)cc2C12CCC2` [Compound 85], the IC50 against EHMT1 and on human EHMT2 913-1193 (setting [1]) was under 0.1 µM throughout.

As for `CNC1=Nc2cc(C#CCN3CCCC3)c(OC)cc2C12CCC2` [Compound 74], the IC50 on EHMT1 and at human EHMT2 913-1193 (setting [1]) was under 0.1 µM in each case.

For `COc1cc2c(cc1OCCCN1CCCC1)N=C(N)C21CCOC1` (stereo not drawn) [Compound 7, 5′-methoxy-6′-(3-(pyrrolidin-1-yl)propoxy)-4,5-dihydro-2H-spiro[furan-3,3′-indol]-2′-amine], the IC50 against EHMT1 and against human EHMT2 913-1193 was under 0.1 µM in each case.

Consider `COc1cc2[nH]c(N)nc2cc1OCCCN1CCCC1` [Compound 1, 6-methoxy-5-(3-(pyrrolidin-1-yl)propoxy)-1H-benzo[d]imidazol-2-amine], for which the IC50 against EHMT1 and at human EHMT2 913-1193 (setting [1]) was under 0.1 µM throughout.

A word on the IC50: it is the midpoint of a concentration-inhibition curve.
